Test results published in patent US11680885B2, “Method, process, composition and kit for measuring concentration of molecules dissolved in the continuous phase of a colloid” (UNIVERSIDAD TÉCNICA FEDERICO SANTA MARÍA, priority 2017, dated 2023).

Experiment: Measurement of concentration of molecules dissolved in the continuous phase of the standard AuNP@MUA colloid (centrifugation, RP-HPLC with UV-visible detection)
Type: physicochemical
Conditions: n=3; for concentration in the control samples, equivalent to the continuous phase of the colloid: control samples: particle-free solution extracted from the colloid, 2.00 μM molecule added; for concentration of molecules dissolved in the continuous phase of the standard AuNP@MUA colloid: test samples, after incorporating 2.00 μM of the molecule into the colloid, centrifuged 24,000×g 15 min, average
Protocol: In general terms, the concentration of molecules dissolved in a fraction of the particle free colloid is measured. To evaluate this, in a first part the method obtains a test sample and a control sample. The test sample contains molecules dissolved in a colloid, and the control sample contains the same concentration of molecules dissolved in a particle-free solution extracted from the same colloid used to obtain the test sample. […] Subsequently, the samples are exposed to a condition that allows the particles of the test sample to be concentrated. […] Then, a particle-free volume is recovered from the test sample. The fraction recovered is equivalent to the continuous phase of the colloid and includes the effect of the interaction between molecules and particles. Finally, the concentration of molecules dissolved in the continuous phase of the colloid is measured using equation 1:
[formula] where [FC] corresponds to the concentration of molecules dissolved in the continuous phase of a colloid, [ ]0 corresponds to the value of the concentration of molecules used during the sampling steps, @mp corresponds to the empirical value of a parameter proportional to the number of molecules contained in a volume of particle-free test sample, and @mc corresponds to the empirical value of the same parameter proportional to the number of molecules contained in a volume of control sample. The concentration value obtained from this equation is equivalent to the concentration of molecules dissolved in the continuous phase of the colloid. […]
[formula] • where [FC] corresponds to the concentration of molecules dissolved in the continuous phase of a colloid, [ ]0 corresponds to the value of the concentration of molecules used during the sampling steps, @mp corresponds to the empirical value of a parameter proportional to the number of molecules contained in a volume of particle-free test sample obtained in step f), and @mc corresponds to the empirical value of the same parameter, but measured in the control sample obtained in step g).

| Compound | concentration in the control samples, equivalent to the continuous phase of the colloid [nM] | concentration of molecules dissolved in the continuous phase of the standard AuNP@MUA colloid [nM] |
| --- | --- | --- |
| CN(C)c1ccc2nc3ccc(=[N+](C)C)cc-3sc2c1 [methylene blue] | 2000 | 1170 |
| CN(C)c1ccc(N=Nc2ccc(S(=O)(=O)[O-])cc2)cc1.[Na+] [methyl orange] | 2000 | 2000 |
